Data set [1] has as its system Jurkat cells. In words: Cellular uptake kinetics assay (Michaelis-Menton). It counts as cell-based, human. The arrangement: Vmax: unit not given here. Here is the method:
(§1) The accuracy of this method for determining concentration was established by weighing selected samples and dissolving them in a known amount of PBS buffer. The concentrations determined by UV spectroscopy correlated with the amounts weighed out manually. Jurkat cells (human T cell line), murine B cells (CH27), or human PBL cells were grown in 10% fetal calf serum and DMEM and each of these were used for cellular uptake experiments. […] The microtiter plates were centrifuged and the cells were isolated, washed with cold PBS (3×250 μL), incubated with 0.05% trypsin/0.53 mM EDTA at 37° C. for 5 min, washed with cold PBS, and resuspended in PBS containing 0.1% propidium iodide. The cells were analyzed using fluorescent flow cytometry (FACScan, Becton Dickinson) and cells staining with propidium iodide were excluded from the analysis. The data presented is the mean fluorescent signal for the 5000 cells collected.
Cellular Uptake Kinetics Assay. The assays were performed as previously described except the cells were incubated for 0.5, 1, 2, and 4 min at 4° C. in triplicate in 2% FCS/PBS (50 μl) in microtiter plates (96 well). The reactions were quenched by diluting the samples into 2% FCS/PBS (5 mL). The assays were then worked up and analyzed by fluorescent flow cytometry as previously described.
The rates of cellular uptake were determined after incubation (3° C.) of the peptides in Jurkat cells for 30, 60, 120, and 240 seconds (Table 1).

Data set [2] deals with Jurkat cells. The data set can be described thus: FACS cellular uptake assay. It counts as cell-based, human. As to conditions: 4 min, 23° C. Here is the method:
as §1
Inhibition of Cellular Uptake with Sodium Azide. The assays were performed as previously described with the exception that the cells used were preincubated for 30 min with 0.5% sodium azide in 2% FCS/PBS buffer prior to the addition of fluorescent peptides and the cells were washed with 0.5% sodium azide in PBS buffer. All of the cellular uptake assays were run in parallel in the presence and absence of sodium azide.
To determine the structural requirements for the cellular uptake of short arginine-rich peptides, a series of fluorescently-labeled truncated analogues of Tat49-57 were synthesized using standard solid-phase chemistry. See, e.g., Atherton, E. et al. SOLID-PHASE PEPTIDE […] (IRL: Oxford, Engl. 1989). A fluorescein moiety was attached via an aminohexanoic acid spacer on the amino termini. The ability of these fluorescently labeled peptides to enter Jurkat cells was then analyzed using fluorescent activated cell sorting (FACS). The peptide constructs tested were Tat49-57 (Fl-ahx-[…]; SEQ ID NO:8): Tat49-56 (Fl-ahx-[…]; SEQ ID NO:9), Tat49-55 (Fl-ahx-RKKRRQR; SEQ ID NO: 10), Tat50-57 (Fl-ahx-[…]; SEQ ID NO: 11), and Tat51-57 (Fl-ahx-KRRQRRR; SEQ ID NO: 12). Differentiation between cell surface binding and internalization was accomplished throughout by running a parallel set of assays in the presence and absence of sodium azide. Because sodium azide inhibits energy-dependent cellular uptake but not cell surface binding, the difference in fluorescence between the two assays provided the amount of fluorescence resulting from internalization.

The subject of another data set is Caco-2 cells. The data set can be described thus: Cellular uptake in Caco-2 cells. The format is cell-based, human. As to conditions: five minutes; for uptake into Caco-2 cells in suspension (flow cytometry): 50-0.8 μM. On the procedure: To analyze the penetration of fluorescent oligomers of D-arginine into the cells when in suspension, the monolayers were treated with trypsin (4.5 ml of a 0.05% solution Gibco, Grand Rapids, Mich.) and the individual cell suspension was spun down.
To analyze the ability of the fluorescent peptides to enter Caco-2 cells when part of a monolayer, the cells were seeded in lab-tek flaskette microscope slides (Nalge Nunc Int., Naperville, Ill.) in 4 ml at a density of 60,000 cells/ml and grown for 21 days with the media being changed every other day. […] The monolayer was subsequently washed with PBS/2% FBS twice to remove labeled peptide and analyzed using fluorescent microscopy.
Varying concentrations of the taxol conjugates (50-0.08 μM) were added to the apical side and exposed to the monolayer of Caco-2 cells for three minutes. The membrane was removed from the apparatus, the cells trypsinized, and the resulting cell suspension was analyzed by flow cytometry (FIG. 33).

The next data set relates to skin of Balb/C mice. Conditions: mouse, in vivo. Here is the method:
Slides were analyzed by fluorescent microscopy.

In the next data set the test system is skin of nude mice. In words: Penetration of biotinylated conjugates into skin of nude mice (streptavidin staining). As to conditions: mouse, in vivo. On the procedure: Samples (100 μl) were applied as a liquid without excipient, prevented from dispersing by a Vaseline™ barrier, and allowed to penetrate for fifteen minutes. At the end of this period the animal was sacrificed, the relevant sections of skin were excised, embedded in mounting medium (OCT), and frozen. Frozen sections (5 microns) were cut using a cryostat, collected on slides, and stained with fluorescently labeled streptavidin (Vector Laboratories, Burlingame, Calif.). The slides were fixed in acetone at 4° C. for ten minutes, air dried, soaked in PBS for five minutes, blocked with normal goat serum for five minutes, and washed with PBS for five minutes. The section was stained by incubation with fluorescently labeled streptavidin at 30 μg/ml for thirty minutes, washed with PBS, counterstained with propidium iodide (1 μg/ml) for two minutes, and the section was mounted with Vectashield™ mounting media. Slides were analyzed by fluorescent microscopy. Parallel studies were done using streptavidin-horse radish peroxidase rather than fluorescein-streptavidin. The biotinylated peptide was visualized by treatment of the sections with the horseradish peroxidase substrate diaminobenzadine, and visualization with light microscopy.
Alternatively, sample (100 μl) was applied as a liquid without excipient and prevented from evaporating by wrapping plastic wrap over the sample sealed with Vaseline™. […] At the end of this period animal was sacrificed, the relevant section of skin was excised, embedded in mounting medium (OCT) and frozen. […] Slides were analyzed by fluorescent microscopy.
At the end of this period animal was sacrificed, the relevant section of skin was excised, embedded in mounting medium (OCT) and frozen. […] Slides were analyzed by fluorescent microscopy
(§2) At the end of this period animal was sacrificed, the relevant section of skin was excised, embedded in mounting medium (OCT) and frozen. […] Slides were analyzed by fluorescent microscopy.
as §2

Data set [3] deals with human skin grafts on SCID mice. As to conditions: in vivo. Here is the method: Samples (100 μl) were applied as a liquid within excipient and prevented from dispersing by a Vaseline™ barrier and allowed to penetrate for fifteen minutes. At the end of this period animal was sacrificed, the relevant section of skin was excised, embedded in mounting medium (OCT) and frozen. […] Slides were analyzed by fluorescent microscopy.

Where [4] appears, read: Jurkat cells, incubation 30, 60, 120, 240 seconds, 3° C.

Each structure is given as a SMILES string. Square brackets hold non-standard residues; d marks the D form. Peptide text beside a SMILES is read from it. * marks the point of attachment. FITC = O=C1OC2(c3ccc(O)cc3Oc3cc(O)ccc32)c2ccc(NC(=S)*)cc21; Ahx = NCCCCCC(=O)O

In general, Km refers to the substrate concentration at which the rate is half of its maximum. `N=C(N)NCCC[C@@H](NC(=O)[C@@H](CCCNC(=N)N)NC(=O)[C@@H](CCCNC(=N)N)NC(=O)[C@@H](CCCNC(=N)N)NC(=O)[C@@H](CCCNC(=N)N)NC(=O)[C@@H](CCCNC(=N)N)NC(=O)[C@@H](CCCNC(=N)N)NC(=O)[C@@H](CCCNC(=N)N)NC(=O)[C@@H](CCCNC(=N)N)NC(=O)CCCCCNC(=S)Nc1ccc2c(c1)C(=O)OC21c2ccc(O)cc2Oc2cc(O)ccc21)C(N)=O` [r9]: the “Km values fold greater / fold better than Tat49-57” value in the data set with Jurkat cells [1] (Discussion) turned out to be 100 fold. Besides, in the data set on Jurkat cells [1] (setting [4]), the Km stood at 7.6 µM and the Vmax was 0.38. The “rate of entering cells, fold faster than Tat47-59” value with Jurkat cells [1] (from Km values, Jurkat cells) is recorded as “approximately 100 fold”. The “cellular uptake compared with d-arginine oligomers / other peptoids” value in the data set on Jurkat cells [2] was “comparable to N-btg9”. For the same compound, the “relative order of cellular uptake” value in the data set with Jurkat cells [2] (peptoids and d-arginine oligomers) is listed as “N-hxg9 (6 methylene)>N-btg9 (4 methylene)>r9 (3 methylene)>N-arg9 (3 methylene)>N-etg9 (2 methylene)”. Besides, in the data set with Caco-2 cells (50 μM, fluorescent microscopy), the “uptake into Caco-2 monolayer on microscope slide” value is on record as “virtually every cell in the monolayer was fluorescent after five minutes”. In addition, the “uptake into Caco-2 cells in suspension (flow cytometry)” value in the data set with Caco-2 cells is “r9 being more effective than r7, which was more effective than r5”.
In the case of `NCCCC[C@@H](NC(=O)[C@@H](CCCCN)NC(=O)[C@@H](CCCCN)NC(=O)[C@@H](CCCCN)NC(=O)[C@@H](CCCCN)NC(=O)[C@@H](CCCCN)NC(=O)[C@@H](CCCCN)NC(=O)CCCCCNC(=S)Nc1ccc2c(c1)C(=O)OC21c2ccc(O)cc2Oc2cc(O)ccc21)C(N)=O` [Fl aca k7, reference compound] ({FITC-Ahx}-[dK][dK][dK][dK][dK][dK][dK]-NH2), the “uptake into Caco-2 cells in suspension (flow cytometry)” value with Caco-2 cells is “All the polymers of arginine entered cells more effectively than the nonamers of lysine”.
On the same count and under the same terms, the value for `N=C(N)NCCC[C@H](NC(=O)[C@H](CCCNC(=N)N)NC(=O)[C@H](CCCNC(=N)N)NC(=O)[C@H](CCCNC(=N)N)NC(=O)[C@H](CCCNC(=N)N)NC(=O)[C@H](CCCNC(=N)N)NC(=O)[C@H](CCCNC(=N)N)NC(=O)CCCCCNC(=S)Nc1ccc2c(c1)C(=O)OC21c2ccc(O)cc2Oc2cc(O)ccc21)C(N)=O` [R7, F1-ahx-RRRRRRR] was “r9 being more effective than r7, which was more effective than r5”; that for `N=C(N)NCCC[C@H](NC(=O)[C@H](CCCNC(=N)N)NC(=O)[C@H](CCCNC(=N)N)NC(=O)[C@H](CCCNC(=N)N)NC(=O)[C@H](CCCNC(=N)N)NC(=O)CCCCCNC(=S)Nc1ccc2c(c1)C(=O)OC21c2ccc(O)cc2Oc2cc(O)ccc21)C(N)=O` [R5, F1-ahx-RRRRR] ({FITC-Ahx}-RRRRR-NH2) was “r9 being more effective than r7, which was more effective than r5”.
With `N=C(N)NCCC[C@@H](NC(=O)[C@@H](CCCNC(=N)N)NC(=O)[C@@H](CCCNC(=N)N)NC(=O)[C@@H](CCCNC(=N)N)NC(=O)[C@@H](CCCNC(=N)N)NC(=O)[C@@H](CCCNC(=N)N)NC(=O)[C@@H](CCCNC(=N)N)NC(=O)CCCCCNC(=O)CCCC[C@@H]1SC[C@@H]2NC(=O)N[C@@H]21)C(N)=O` [Biotinylated arginine heptamer], the penetration into skin result with skin of Balb/C mice is “crossed into and across the epidermis and into the dermis”. In the data set on skin of nude mice, the “penetration into skin (streptavidin staining)” value was “crossed into and across the epidermis and into the dermis”. Also, in data set [3], the “penetration into human skin” value was “crossed into and across the epidermis and into the dermis of the human skin”.
As for `O=C(O)CCCC[C@@H]1SC[C@@H]2NC(=O)N[C@@H]21` [biotin, reference compound], the penetration into skin result with skin of Balb/C mice was “no staining was apparent”. Besides, the “penetration into skin (streptavidin staining)” value in the data set on skin of nude mice is on record as “no staining was apparent”. In addition, the “penetration into human skin” value in data set [3] is recorded as “no staining was apparent”.

For the origin of these results see US6669951B2, “Compositions and methods for enhancing drug delivery across and into epithelial tissues” (CellGate, Inc., priority 1999, dated 2003).
